Results as given in ChEMBL document CHEMBL1123072, “1,3-Dialkyl-8-(p-sulfophenyl)xanthines: potent water-soluble antagonists for A1- and A2-adenosine receptors” (J Med Chem, 1985).
Converted amounts (≈) assume the structure as drawn.

Key:
Adenosine receptor A1 = biological target: T1, Adenosine receptor A1 (Rattus norvegicus, UniProt P25099); assay: Antagonism of binding of 1 nM [3H]cyclohexyladenosine to adenosine A1 receptors on rat cortical membranes; assay type: cell membranes, Membrane
T1 sequence (P25099 whole entry): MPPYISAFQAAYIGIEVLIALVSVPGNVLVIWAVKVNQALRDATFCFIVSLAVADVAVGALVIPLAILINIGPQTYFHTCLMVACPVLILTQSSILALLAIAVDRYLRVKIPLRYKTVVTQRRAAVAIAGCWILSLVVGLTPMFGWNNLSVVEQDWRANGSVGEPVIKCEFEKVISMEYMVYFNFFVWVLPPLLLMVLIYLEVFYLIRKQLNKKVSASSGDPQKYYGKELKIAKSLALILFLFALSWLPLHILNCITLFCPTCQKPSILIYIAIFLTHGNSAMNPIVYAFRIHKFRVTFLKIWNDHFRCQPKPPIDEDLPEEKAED

Adenosine receptor A2a [1] = biological target: T2, Adenosine receptor A2a (Cavia porcellus, UniProt P46616)
Description: Antagonism of cyclic [3H]AMP accumulation in guinea pig cerebral cortical slices (elicited by 15 uM 2-chloroadenosine at adenosine A2 receptor)

[2] = Solubility in water; assay type: physicochemical; settings: read-out: S
Adenosine receptor A2a [3] = biological target: T2, Adenosine receptor A2a; assay: Antagonism of cyclic [3H]AMP accumulation elicited by 15 uM 2-chloroadenosine in [3H]adenine-labeled guinea pig cerebral cortical slices at A2 receptor; assay type: functional

T2 sequence (P46616 whole entry): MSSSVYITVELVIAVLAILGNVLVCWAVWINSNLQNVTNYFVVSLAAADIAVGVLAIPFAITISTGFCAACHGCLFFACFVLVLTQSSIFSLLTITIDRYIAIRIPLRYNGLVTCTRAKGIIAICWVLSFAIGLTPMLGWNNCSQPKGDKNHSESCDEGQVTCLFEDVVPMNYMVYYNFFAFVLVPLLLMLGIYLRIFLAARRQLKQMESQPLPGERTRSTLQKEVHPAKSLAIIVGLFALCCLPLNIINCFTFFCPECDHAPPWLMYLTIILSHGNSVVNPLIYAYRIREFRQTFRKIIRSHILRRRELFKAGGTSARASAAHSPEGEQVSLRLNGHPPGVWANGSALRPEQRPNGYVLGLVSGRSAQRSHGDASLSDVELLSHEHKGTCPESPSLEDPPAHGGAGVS

Row | Ki (Adenosine receptor A1) | Ki (Adenosine receptor A2a [1]) | solubility [2] | EC50 (Adenosine receptor A2a [3]) | Structure (SMILES)
1 | 50 nM | 130 nM | 5 µM (≈ 1.36 µg/mL) | – | Cn1c(=O)c2nc(-c3ccc(O)cc3)[nH]c2n(C)c1=O
2 | > 50000 nM | > 30000 nM | – | – | Cn1c(=O)c2nc(-c3ccccc3C(=O)O)[nH]c2n(C)c1=O
3 | 850 nM | 1700 nM | – | – | Cn1c(=O)c2nc(-c3ccccc3N)[nH]c2n(C)c1=O
4 | 13000 nM | > 150000 nM | – | – | CC(C)CCn1c(=O)c2[nH]cnc2n(CC(C)C)c1=O
5 | 2.9 nM | 50 nM | – | – | CCCn1c(=O)c2nc(-c3ccc(O)cc3)[nH]c2n(CCC)c1=O
6 | 700 nM | – | – | – | CCCn1c(=O)c2nc[nH]c2n(CCC)c1=O
7 | 170 nM | – | – | – | CCCn1c(=O)c2nc(-c3ccc(C(=O)O)cc3)[nH]c2n(CCC)c1=O
8 | – | – | – | 8000 nM | Nc1nc(Cl)nc2c1ncn2[C@@H]1O[C@H](CO)[C@@H](O)[C@H]1O
9 | 2.5 nM | 1000 nM | – | – | CCCn1c(=O)c2[nH]c(-c3ccc(Cl)cc3N)nc2n(CCC)c1=O
10 | 1100 nM | 900 nM | – | – | Cn1c(=O)c2[nH]c(-c3cccc(N)c3)nc2n(C)c1=O

Continued, molecule first:

Row | Structure (SMILES) | Ki (Adenosine receptor A1) | Ki (Adenosine receptor A2a [1]) | solubility [2] | EC50 (Adenosine receptor A2a [3])
11 | CC(C)CCn1c(=O)c2[nH]c(-c3ccc(S(=O)(=O)O)cc3)nc2n(CC(C)C)c1=O | 3500 nM | 7000 nM | – | –
12 | Cn1c(=O)c2[nH]c(-c3ccc(N)cc3)nc2n(C)c1=O | 230 nM | 130 nM | – | –
13 | CCCn1c(=O)c2[nH]c(-c3ccc(S(=O)(=O)O)cc3)nc2n(CCC)c1=O | 210 nM | 710 nM | – | –
14 | Cn1c(=O)c2[nH]c(-c3cccc(O)c3)nc2n(C)c1=O | 340 nM | 1000 nM | – | –
15 | Cn1c(=O)c2c(nc(-c3ccccc3)n2C)n(C)c1=O | 17000 nM | 27000 nM | – | –
16 | Cn1c(=O)c2[nH]c(-c3ccc(S(=O)(=O)O)cc3)nc2n(C)c1=O | – | 6300 nM | > 20000 µM | –
17 | Cc1nc2c(=O)n(C)c(=O)n(C)c2[nH]1 | 6500 nM | 14000 nM | – | –
18 | Cn1c(=O)c2[nH]c(-c3cccc(C(=O)O)c3)nc2n(C)c1=O | 32000 nM | 15000 nM | – | –
19 | Cn1c(=O)c2[nH]c(-c3ccccc3)nc2n(C)c1=O [8-PHENYL THEOPHYLLINE] | – | 550 nM | – | –
20 | Cn1c(=O)c2[nH]c(-c3ccccc3O)nc2n(C)c1=O | 750 nM | 1700 nM | – | –
21 | CC(C)CCn1c(=O)c2nc(-c3ccccc3)[nH]c2n(CC(C)C)c1=O | 1800 nM | > 10000 nM | 10 µM (≈ 3.54 µg/mL) | –
22 | Cn1c(=O)c2[nH]c(-c3ccc(C(=O)O)cc3)nc2n(C)c1=O | – | 2500 nM | 90 µM (≈ 27 µg/mL) | –
